We go through 1 compound from patent publication US12208105B2, “Methods for attenuating graft-versus-host disease and opportunistic infections” (priority 2018, dated 2025).

One data set is described as follows: Cytotoxicity (Table 1). It counts as cell-based. The text has this: Perhaps the most important goal of HSCT research is to separate the beneficial anti-tumor effects mediated by donor T cells from the deleterious GVHD responses that they are also capable of producing. […] Unfortunately, there were no drugs or therapeutic antibodies available for clinical use. As a result, we pursued our high throughput screening (HTS) effort to identify novel small molecule antagonists with anti-CCR7 activity. The initial drug discovery process identified cosalane as a CCR7 antagonist. A substantial amount of work has subsequently been done with the compound in an effort to prevent acute graft-versus-host disease in mouse bone marrow transplant models.

For another data set, the system named is TNF and IFN-γ. The data set is described as follows: Organ inflammatory cytokines by ELISA after HSCT. The conditions noted are these: day +14. For orientation: An ELISA detects its analyte on a solid surface through an enzyme-linked reagent.
The subject of the next data set is Epstein Barr virus (EBV). It counts as cell-based, human.
A further data set concerns the target serum albumin (Homo sapiens, UniProt P02768). The note with it: cited from earlier work.
Data set [1] deals with human PBMC into NSG xenogeneic aGVHD system. Put plainly: Xenogeneic aGVHD, human PBMC into NSG mice, cells incubated ex vivo. The format is in vivo, mouse. Also noted: survival times: dose or concentration left out as unconfirmed.
In the next data set the target is T1, Murine CCR7 (Mus musculus, UniProt P47774).
T1 sequence (P47774 25-378): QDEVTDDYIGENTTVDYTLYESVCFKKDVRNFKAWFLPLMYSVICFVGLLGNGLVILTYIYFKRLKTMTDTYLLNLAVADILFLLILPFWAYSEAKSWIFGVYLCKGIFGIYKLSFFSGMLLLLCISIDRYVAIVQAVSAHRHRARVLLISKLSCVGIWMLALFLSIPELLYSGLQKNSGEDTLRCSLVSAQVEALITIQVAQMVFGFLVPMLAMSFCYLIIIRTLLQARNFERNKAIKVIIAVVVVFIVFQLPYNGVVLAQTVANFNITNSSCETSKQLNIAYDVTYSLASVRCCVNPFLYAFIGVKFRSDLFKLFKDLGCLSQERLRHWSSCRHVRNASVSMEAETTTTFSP
Put plainly: HTS primary reporter assay, murine CCR7. The format is cell-based. In general terms: Reporter assays use an easily measured gene product as a stand-in for the process of interest.

Data set [2] deals with T2, CCR7 (Homo sapiens, UniProt P32248).
T2 sequence (P32248 25-378): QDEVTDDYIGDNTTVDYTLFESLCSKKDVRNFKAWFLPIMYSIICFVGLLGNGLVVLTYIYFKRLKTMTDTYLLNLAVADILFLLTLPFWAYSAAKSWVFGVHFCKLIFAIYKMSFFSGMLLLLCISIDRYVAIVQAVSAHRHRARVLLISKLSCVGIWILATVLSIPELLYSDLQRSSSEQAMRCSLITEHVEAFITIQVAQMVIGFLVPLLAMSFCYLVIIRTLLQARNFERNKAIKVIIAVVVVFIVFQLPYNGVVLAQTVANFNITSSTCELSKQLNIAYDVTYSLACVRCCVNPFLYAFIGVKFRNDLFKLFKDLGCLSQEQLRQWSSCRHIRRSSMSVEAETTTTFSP
Put plainly: HTS primary reporter assay, human CCR7. It counts as cell-based.

Data set [3] deals with T2, CCR7. The note with it: cited from earlier work.
Data set [4] deals with T2, CCR7. The data set is described as follows: Trans-well chemotaxis assay, human H9 cells. It counts as cell-based. Set-up: confirm that hits identified in the HTS were active against native CCR7; endogenous in cells; host or cells: H9 cells (human cutaneous T cell lymphoma line). Here is the method:
FIGS. 1A-1D show cosalane impairs CCR7 driven human and murine chemotaxis. (A, B) Chemotaxis media with or without CCL19 (A) or CCL21 (B) was added to the lower chambers of the chemotaxis device. Previously untreated H9 cells were then placed in the upper chambers of the device with or without cosalane at a concentration of 2 μM. The chamber was then placed at 37° C. for 3.5 hours and total H9 migration from each upper to lower chamber determined. (A) *P=0.048 for comparison between H9 cells/30 nM CCL19 and H9 cells/30 nM CCL19/2 μM cosalane by Student's t test. (B) P>0.05 for comparison between H9 cells/200 nM CCL21 and H9 cells/200 nM CCL21/2 μM cosalane. (C, D) Chemotaxis media with or without CCL19 (C) or CCL21 (D) was added to the lower chambers of the chemotaxis device. Previously untreated primary murine T cells were then placed in the upper chambers of the device with or without cosalane at a concentration of 2 μM. Total T cell migration from each upper to lower chamber was then determined. (C) *P=0.029. (D) *P<0.001.
While useful from a screening perspective, our primary reporter assays for the HTS were not physiologic. As a result, it was important to confirm that hits identified in the HTS were active against native CCR7 and could block an actual function mediated by the receptor. For this, we used a well-described trans-well chemotaxis assay system using human H9 cells, a cutaneous T cell lymphoma line known to express high levels of CCR7 and to migrate in response to its ligands (Ott et al., J. Pharmacol. Toxicol. Meth. 51:105 (2005)). In addition, we utilized primary mouse, naïve (CD25^neg) T cells obtained from C57BL/6 mice. As depicted in FIG. 1A, human H9 cells placed in the upper chambers of the chemotaxis device readily migrated through the separating membrane when CCL19 was present in the lower chamber. […] Similarly, murine T cell chemotaxis was also impaired by cosalane in response to both CCL19 and CCL21 (FIGS. 1C-1D).
To evaluate this possibility, human H9 cells were incubated with 10 mcg/ml (13 μM) of cosalane versus DMSO vehicle for one hour and then washed free of the compound. The cells were then placed into the chemotaxis chamber as was done in FIGS. 1A-1D. […] Similar experiments were performed with naïve primary mouse T cells.

Another data set concerns donor Tcon accumulation. The data set is described as follows: Organ eGFP quantification (donor Tcon accumulation, anti-eGFP ELISA). The format is in vivo, mouse.
Where [5] appears, read: 10 mcg/ml (13 μM) one hour, then washed.
[6] abbreviates: day +14, Tcons incubated 15 μg/ml.

Like-named read-outs stand apart in the source and are kept apart here.

Sequence of serum albumin (P02768 25-609): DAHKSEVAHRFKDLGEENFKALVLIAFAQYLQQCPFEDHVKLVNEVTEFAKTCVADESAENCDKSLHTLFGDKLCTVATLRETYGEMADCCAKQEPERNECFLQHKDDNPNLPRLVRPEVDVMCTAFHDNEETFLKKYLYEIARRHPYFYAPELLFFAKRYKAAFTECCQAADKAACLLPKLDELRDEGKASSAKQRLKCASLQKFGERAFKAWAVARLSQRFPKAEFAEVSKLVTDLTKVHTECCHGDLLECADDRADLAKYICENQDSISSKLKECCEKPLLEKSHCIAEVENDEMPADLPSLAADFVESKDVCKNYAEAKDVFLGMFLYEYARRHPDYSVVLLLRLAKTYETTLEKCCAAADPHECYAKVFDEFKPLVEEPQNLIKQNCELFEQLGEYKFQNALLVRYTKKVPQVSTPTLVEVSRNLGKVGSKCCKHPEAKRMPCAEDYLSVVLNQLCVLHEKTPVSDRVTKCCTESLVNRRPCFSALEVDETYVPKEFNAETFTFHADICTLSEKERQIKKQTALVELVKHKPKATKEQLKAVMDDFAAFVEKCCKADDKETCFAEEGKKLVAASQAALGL
Description for TNF and IFN-γ: (A, B) B6D2 mice were lethally irradiated on transplant day −1. On day 0 recipients were administered 3×10^6 TCD B6 BM cells +/−4×10^6 B6 Tcons. Donor TCD BM cells, donor Tcons, both cell populations, or neither were incubated ex vivo with cosalane at 15 μg/ml for one hour prior to transplant. Those cells not treated with cosalane were incubated with an equal volume of DMSO vehicle. Mice were then followed for survival and scored for aGVHD. N=2 BM only. N=5 for all other treatment groups. […] (C, D) B6D2 mice were lethally irradiated on transplant day −1. On day 0 recipients were administered 3×10^6 TCD eGFP^− B6 BM cells plus 4×10^6 eGFP^+ B6 Tcons. Donor Tcons were incubated ex vivo with DMSO vehicle or cosalane diluted in normal saline at 15 μg/ml. The cells were then mixed with untreated TCD B6 BM cells and administered immediately to recipient mice by tail vein injection. Recipient mice were subsequently killed on day +7 (C) or day +14 (D). Lymphoid organs (left panels) and aGVHD target organs (right panels) were subsequently harvested and homogenized. Total eGFP levels were then determined using an anti-eGFP ELISA. N=7 per treatment group. […] (E, F) B6D2 mice were transplanted as in (C, D) and their organs removed and homogenized on day +7 (E) or day +14 (F). Total IFN-y (left panels) and TNF (right panels) was then determined by ELISA. N=7 per treatment group.

As usually defined, the IC50 is the point on the concentration scale where inhibition reaches its midpoint. For the compound `CC(C)CCC[C@@H](C)[C@H]1CC[C@H]2[C@@H]3CC[C@H]4C[C@@H](CCC=C(c5cc(Cl)c(O)c(C(=O)O)c5)c5cc(Cl)c(O)c(C(=O)O)c5)CC[C@]4(C)[C@H]3CC[C@]12C` [Cosalane, cosalane], in the data set “Cytotoxicity (Table 1)”, the Cytotoxicity is >50 (non-toxic) μM. In addition, in the data set with TNF and IFN-γ, the “TNF and IFN-γ levels in the host colon” value was “significantly reduced”. Also, the “EBV infection, isolated pretreatment of target cells” value with Epstein Barr virus (EBV) (20 μg/ml pretreatment one hour, washed) was “reduced viral infection to a significant degree”. Besides, the “EBV infectivity, compound present throughout” value with Epstein Barr virus (EBV) (20 μg/ml, Raji cells, 48 hours) is listed as “significantly limited EBV infectivity”. Moreover, on serum albumin, the albumin avidity entry is listed as “high albumin avidity”. Moreover, in data set [1] (human PBMCs incubated 35 μg/ml), the survival result was “most recipients surviving to the end of the study period”. Further, the survival times entry in data set [1] (human PBMCs incubated with cosalane) is on record as “prolonged survival times”. Further, the half-maximal inhibitory concentration (IC50) stood at 193 nM on Murine CCR7 (ligand CCL19, read-out: Murine CCR7 IC50 To CCL19); 1980 nM at Murine CCR7 (ligand CCL21, read-out: Murine CCR7 IC50 To CCL21); 207 nM on CCR7 [2] (ligand CCL19, read-out: Human CCR7 IC50 To CCL19); 2660 nM on CCR7 [2] (ligand CCL21, read-out: Human CCR7 IC50 To CCL21). The “activity against CCL19 versus CCL21” value at CCR7 [3] is given as “approximately 10 fold”. For the same compound, the “H9 cell migration in response to CCL19” value at CCR7 [4] (2 μM cosalane in upper chamber, 30 nM CCL19, 3.5 hours, vs DMSO) is given as “inhibited versus DMSO”. Moreover, the “H9 cell CCL21 driven chemotaxis” value at CCR7 [4] (2 μM cosalane in upper chamber, 200 nM CCL21) is given as “reduced by cosalane, although this did not achieve statistical significance”. Further, the “H9 chemotaxis in response to CCL19 after pretreatment alone” value on CCR7 [4] (setting [5]) is recorded as “significantly reduced”. Moreover, the “H9 chemotaxis in response to CCL21 after pretreatment alone” value at CCR7 [4] (setting [5]) was “significantly reduced”. Moreover, the “donor Tcon numbers within the spleen, ILN, and MLN” value in the data set on donor Tcon accumulation (36 hours after transplant, Tcons incubated 15 μg/ml) was “significant reduction in donor Tcon numbers”. Also, the “donor Tcon accumulation in secondary lymphoid tissues and aGVHD target organs” value with donor Tcon accumulation (day +7, Tcons incubated 15 μg/ml) is recorded as “no differences in donor Tcon accumulation”. For the same compound, in the data set with donor Tcon accumulation (setting [6]), the “donor Tcon accumulation within host lymphoid sites” value was “no differences in donor Tcon accumulation”. In the data set with donor Tcon accumulation (setting [6]), the “donor Tcons within the colon and liver” value is recorded as “significant reduction in donor Tcons”.
